Reference: patent US20230138851A1, “NOVEL ALKYNE DERIVATIVES” (CARNA BIOSCIENCES, INC., priority 2020, published 2023)

Legend:
Format in all cases: biochemical
DYRK1A = target: T1, DYRK1A (Homo sapiens, UniProt Q13627); assay: Inhibition test on activity of DYRK family, mobility shift assay (MSA), DYRK1A; conditions: ATP 100 μM, FITC-labeled DYRKtide peptide substrate, room temperature 1 hour
T1 construct: purchased Carna Biosciences, Inc. 04-130
Procedure, shortened: (§1)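 FITC-DYRKtide phosphorylation in 20 mM HEPES pH 7.5 with MgCl2; ATP in the substrate mix was 100 μM (DYRK1A), 200 μM (DYRK1B), 40 μM (DYRK2) or 20 μM (DYRK3). Reactions ran 1 h at room temperature; inhibition from P/(P+S) versus blank and DMSO control, IC50 by regression on log concentration.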

DYRK1B = target: T2, DYRK1B (Homo sapiens, UniProt Q9Y463); assay: Inhibition test on activity of DYRK family, mobility shift assay (MSA), DYRK1B; design: Inhibitory Activity 1b (IC50 against DYRK1B): scale not given here; conditions: ATP 200 μM, FITC-labeled DYRKtide peptide substrate, room temperature 1 hour
T2 construct: purchased Carna Biosciences, Inc. 04-131
Description: [Inhibition Test on Activity of DYRK Family (DYRK1A, DYRK1B, DYRK2, and […])]
(Method for Measuring Kinase Activity)
The kinase activity was measured by mobility shift assay (MSA) method using QuickScout Screening Assist™ MSA (commercially available kit manufactured by Carna Biosciences, Inc.). The substrate of the kinase reaction used was an FITC-labeled DYRKtide peptide included in the kit. An assay buffer [20 mM HEPES, 0.01% Triton X-100™, 2 mM dithiothreitol, pH 7.5] was used to create a substrate mixture solution with a substrate (4 μM), MgCl2 (20 mM), and ATP (DYRK1A: 100 μM; DYRK1B: 200 μM; DYRK2: 40 μM; and DYRK3: 20 μM). In addition, kinases (DYRK1A: manufactured by Carna Biosciences, Inc., Cat. No. 04-130; DYRK1B: manufactured by Carna Biosciences, Inc., Cat. No. 04-131; DYRK2; manufactured by Carna Biosciences, Inc., Cat. No. 04-132; and DYRK3; manufactured by Carna Biosciences, Inc., Cat. No. 04-133) were diluted with the assay buffer to prepare enzyme solutions (DYRK1A: 0.2 ng/μL; DYRK1B: 0.08 ng/μL; DYRK2: 0.04 ng/μL; and DYRK3: 0.25 ng/μL). The 10 mM solution of the test compound in DMSO was further diluted with DMSO to 10 levels of the concentration (0.00003 mM, 0.0001 mM, 0.0003 mM, 0.001 mM, 0.003 mM, 0.01 mM, 0.03 mM, 0.1 mM, 0.3 mM, and 1 mM), each of which was subjected to 25-fold dilution with the assay buffer to obtain a drug solution (4% DMSO solution). 5 μL of the drug solution or a control solution (4% DMSO-assay buffer), 5 μL of the substrate mixture solution, and 10 μL of the enzyme solution were mixed in the wells of a polypropylene 384-well plate and allowed to react at room temperature for 1 hour, and then the reaction was quenched by adding 60 μL of the termination buffer included in the kit. Subsequently, the quantities of the substrates (S) and the phosphorylated substrate (P) in the reaction solution were measured using LabChip EZ Reader II system (manufactured by Caliper Life Sciences) according to the protocol of the assay kit.
(Method for Evaluating Inhibitory Activity)
The heights of the peaks of the “substrate” and the “phosphorylated substrate” were expressed as S and P, respectively, and a blank containing the assay buffer instead of the enzyme solution was also measured.
The inhibition rate (%) of the test compound was calculated according to the following equation:
Inhibition rate (%)=(1−(C−A)/(B−A))×100
wherein, A, B, and C represent P/(P+S) of the blank well, P/(P+S) of the control solution well, and P/(P+S) of the compound-containing well, respectively.
The IC50 value was calculated via a regression analysis of the inhibition rate and the test compound concentration (logarithmic value).
The inhibiting activities of representative compounds of the present invention are shown against DYRK1A, DYRK1B, DYRK2, and DYRK3 in Tables 7 and 8. The kinase activity inhibitory effect was indicated with the mark *** at an IC50 value of less than 0.01 μM; the mark ** at 0.01 μM or more and less than 0.1 μM; the mark * at 0.1 μM or more and less than 1 μM; and the mark — at 1 μM or more (N.D. indicates not measured).

DYRK2 = target: T3, DYRK2 (Homo sapiens, UniProt Q92630); assay: Inhibition test on activity of DYRK family, mobility shift assay (MSA), DYRK2; conditions: ATP 40 μM, FITC-labeled DYRKtide peptide substrate, room temperature 1 hour; read-out: Inhibitory Activity 2 (IC50 against DYRK2)
T3 construct: purchased Carna Biosciences, Inc. 04-132
T3 sequence (Q92630 1-601): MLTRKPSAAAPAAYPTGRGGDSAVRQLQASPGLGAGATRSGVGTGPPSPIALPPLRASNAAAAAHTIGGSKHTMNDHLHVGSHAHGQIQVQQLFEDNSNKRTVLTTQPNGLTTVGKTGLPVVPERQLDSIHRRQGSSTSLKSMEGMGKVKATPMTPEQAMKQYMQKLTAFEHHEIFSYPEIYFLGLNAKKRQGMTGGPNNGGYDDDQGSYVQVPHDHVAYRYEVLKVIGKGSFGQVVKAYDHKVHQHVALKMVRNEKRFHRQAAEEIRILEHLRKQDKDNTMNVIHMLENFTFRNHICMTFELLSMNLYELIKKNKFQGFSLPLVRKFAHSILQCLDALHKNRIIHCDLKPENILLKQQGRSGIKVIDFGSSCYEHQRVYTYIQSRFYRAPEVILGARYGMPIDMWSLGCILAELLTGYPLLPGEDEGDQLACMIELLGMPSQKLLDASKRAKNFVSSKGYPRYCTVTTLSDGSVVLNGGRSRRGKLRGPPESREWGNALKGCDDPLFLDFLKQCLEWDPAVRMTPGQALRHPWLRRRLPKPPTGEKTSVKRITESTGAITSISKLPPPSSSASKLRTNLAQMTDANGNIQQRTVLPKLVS
Procedure, shortened: as §1

DYRK3 = target: T4, DYRK3 (Homo sapiens, UniProt O43781); assay: Inhibition test on activity of DYRK family, mobility shift assay (MSA), DYRK3; conditions: ATP 20 μM, FITC-labeled DYRKtide peptide substrate, room temperature 1 hour; for IC50: read-out: Inhibitory Activity 3 (IC50 against DYRK3)
T4 construct: purchased Carna Biosciences, Inc. 04-133
T4 sequence (O43781 1-588): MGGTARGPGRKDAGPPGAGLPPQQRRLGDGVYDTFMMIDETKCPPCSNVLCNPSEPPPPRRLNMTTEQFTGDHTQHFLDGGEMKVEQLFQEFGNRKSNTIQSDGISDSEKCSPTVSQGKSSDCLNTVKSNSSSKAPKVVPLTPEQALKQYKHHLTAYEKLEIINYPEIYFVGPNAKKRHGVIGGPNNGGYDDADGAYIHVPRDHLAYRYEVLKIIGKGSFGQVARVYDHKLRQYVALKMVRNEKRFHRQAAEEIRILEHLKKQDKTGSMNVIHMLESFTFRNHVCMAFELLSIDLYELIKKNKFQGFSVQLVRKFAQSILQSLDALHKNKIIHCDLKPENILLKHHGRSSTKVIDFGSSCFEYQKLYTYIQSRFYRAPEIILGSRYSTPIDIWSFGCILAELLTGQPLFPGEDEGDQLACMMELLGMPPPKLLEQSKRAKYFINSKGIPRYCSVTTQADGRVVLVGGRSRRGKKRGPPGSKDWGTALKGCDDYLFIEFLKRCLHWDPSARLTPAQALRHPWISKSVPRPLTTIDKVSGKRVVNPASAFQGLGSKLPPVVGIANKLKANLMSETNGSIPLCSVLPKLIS
Procedure, shortened: as §1

T2 sequence (Q9Y463 whole entry): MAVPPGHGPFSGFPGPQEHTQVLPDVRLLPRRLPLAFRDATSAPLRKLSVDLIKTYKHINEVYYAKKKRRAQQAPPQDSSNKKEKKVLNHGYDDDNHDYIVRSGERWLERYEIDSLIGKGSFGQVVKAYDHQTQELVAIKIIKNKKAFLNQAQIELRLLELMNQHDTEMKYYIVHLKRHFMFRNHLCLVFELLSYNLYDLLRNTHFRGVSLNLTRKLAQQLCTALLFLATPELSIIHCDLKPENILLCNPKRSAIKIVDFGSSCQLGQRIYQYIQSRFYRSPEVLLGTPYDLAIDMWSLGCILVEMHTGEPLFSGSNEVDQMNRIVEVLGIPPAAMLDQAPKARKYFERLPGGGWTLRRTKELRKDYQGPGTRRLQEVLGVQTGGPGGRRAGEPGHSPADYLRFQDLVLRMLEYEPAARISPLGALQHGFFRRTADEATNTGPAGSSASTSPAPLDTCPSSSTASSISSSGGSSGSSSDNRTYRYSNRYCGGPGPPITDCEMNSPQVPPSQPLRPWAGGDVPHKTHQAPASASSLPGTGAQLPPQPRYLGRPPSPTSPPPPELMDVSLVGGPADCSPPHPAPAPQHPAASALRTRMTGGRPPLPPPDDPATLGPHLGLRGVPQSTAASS

| SMILES | Inhibitory Activity 1a (IC50 against DYRK1A) (DYRK1A) | Inhibitory Activity 1b (IC50 against DYRK1B) (DYRK1B) | IC50 (DYRK2) [nM] | IC50 (DYRK3) [nM] | IC50 (DYRK1A; read-out: Inhibitory Activity 1a (IC50 against DYRK1A)) [nM] | IC50 (DYRK1B; read-out: Inhibitory Activity 1b (IC50 against DYRK1B)) [nM] | Inhibitory Activity 3 (IC50 against DYRK3) (DYRK3) |
| --- | --- | --- | --- | --- | --- | --- | --- |
| CC#CC1CNC(=O)N1c1nc2c3c(ccc2s1)OCCN3 (racemic) [Example 38, (RS)-1-(8,9-dihydro-7H-thiazolo[4′,5′:3,4]benz[1,2-b][1,4]oxazin-2-yl)-5-(prop-1-yn-1-yl)imidazolidin-2-one] | * * * | * * * | 100 to 1000 | 100 to 1000 | – | – | – |
| CC#CC1CNC(=O)N1c1nc2c3c(ccc2s1)OCCN3C(C)=O (racemic) [Example 39, (RS)-1-(9-acetyl-8,9-dihydro-7H-thiazolo[4′,5′:3,4]benz[1,2-b][1,4]oxazin-2-yl)-5-(prop-1-yn-1-yl)imidazolidin-2-one] | – | – | ≥ 1000 | ≥ 1000 | 100 to 1000 | ≥ 1000 | – |
| CC#CC1CNC(=O)N1c1nc2c(ccc3ncn(CCO)c32)s1 (racemic) [Example 31, (RS)-1-[8-(2-hydroxyethyl)-8H-imidazo[4′,5′:5,6]benz[1,2-d]thiazol-2-yl]-5-(prop-1-yn-1-yl)imidazolidin-2-one] | * * * | * * * | 100 to 1000 | 100 to 1000 | – | – | – |
| CC#C[C@@H]1[C@H](C)NC(=O)N1c1nc2c3c(ccc2s1)OCC3 [Example 5, (4S,5R)-1-(7,8-dihydrobenzofuro[4,5-d]thiazol-2-yl)-4-methyl-5-(prop-1-yn-1-yl)imidazolidin-2-one] | * * * | * * * | 100 to 1000 | 100 to 1000 | – | – | – |
| CC#CC1CNC(=O)N1c1nc2c3c(ccc2s1)OCO3 (racemic) [Example 1, (RS)-1-([1,3]dioxolo[4′,5′:5,6]benzo[1,2-d]thiazol-7-yl)-5-(prop-1-yn-1-yl)imidazolidin-2-one] | * * * | * * * | 100 to 1000 | – | – | – | * * |
| CC#CC1CNC(=O)N1c1nc2c3c(ccc2s1)OCCN3C (racemic) [Example 25, (RS)-1-(9-methyl-8,9-dihydro-7H-thiazolo[4′,5′;3,4]benz[1,2-b][1,4]oxazin-2-yl)-5-(prop-1-yn-1-yl)imidazolidin-2-one] | * * * | * * * | 100 to 1000 | 100 to 1000 | – | – | – |
